Measured values from ChEMBL document CHEMBL1131451, “Structural and functional analyses of benzamidine-based inhibitors in complex with trypsin: implications for the inhibition of factor Xa, tPA, and urokinase” (J Med Chem, 1998).

Assays:
[1] = target: Urokinase-type plasminogen activator (Homo sapiens, UniProt P00749); assay: Inhibitory activity against human urokinase plasminogen activator expressed as dissociation constant
Coagulation factor X = Coagulation factor X (Bos taurus, UniProt P00743); assay: Inhibitory activity against bovine coagulation factor X expressed as dissociation constant
Prothrombin = Prothrombin (Bos taurus, UniProt P00735); assay: Inhibitory activity against bovine thrombin expressed as dissociation constant
[2] = target: Tissue-type plasminogen activator (Homo sapiens, UniProt P00750); assay: Inhibitory activity against human tissue-type plasminogen activator expressed as dissociation constant
Serine protease 1 = target: T1, Serine protease 1 (Bos taurus, UniProt P00760); assay: Inhibitory activity against bovine trypsin expressed as dissociation constant
T1 sequence (P00760 whole entry): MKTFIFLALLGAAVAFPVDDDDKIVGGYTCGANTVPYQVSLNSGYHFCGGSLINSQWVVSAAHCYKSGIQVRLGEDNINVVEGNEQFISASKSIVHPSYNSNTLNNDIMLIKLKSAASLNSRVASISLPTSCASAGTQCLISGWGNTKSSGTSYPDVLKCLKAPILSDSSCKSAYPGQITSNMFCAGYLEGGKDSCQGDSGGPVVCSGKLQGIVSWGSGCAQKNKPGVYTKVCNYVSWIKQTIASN

Tissue-type plasminogen activator, sequence (P00750 whole entry): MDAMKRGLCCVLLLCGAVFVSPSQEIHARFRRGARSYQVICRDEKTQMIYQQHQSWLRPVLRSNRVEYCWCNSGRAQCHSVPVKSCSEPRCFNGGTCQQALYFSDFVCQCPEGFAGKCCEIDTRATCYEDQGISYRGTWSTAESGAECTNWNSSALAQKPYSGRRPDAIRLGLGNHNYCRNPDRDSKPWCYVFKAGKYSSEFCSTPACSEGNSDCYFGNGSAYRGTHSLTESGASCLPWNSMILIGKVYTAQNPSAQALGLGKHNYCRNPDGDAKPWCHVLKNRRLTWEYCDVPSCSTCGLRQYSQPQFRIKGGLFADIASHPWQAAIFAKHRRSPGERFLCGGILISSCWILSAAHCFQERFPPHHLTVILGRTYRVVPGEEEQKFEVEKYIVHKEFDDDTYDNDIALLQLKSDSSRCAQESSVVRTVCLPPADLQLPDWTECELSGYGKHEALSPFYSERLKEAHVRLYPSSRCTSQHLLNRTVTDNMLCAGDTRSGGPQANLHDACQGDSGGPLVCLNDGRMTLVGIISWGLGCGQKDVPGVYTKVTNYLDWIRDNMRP
Coagulation factor X, sequence (P00743 41-180 limits assumed): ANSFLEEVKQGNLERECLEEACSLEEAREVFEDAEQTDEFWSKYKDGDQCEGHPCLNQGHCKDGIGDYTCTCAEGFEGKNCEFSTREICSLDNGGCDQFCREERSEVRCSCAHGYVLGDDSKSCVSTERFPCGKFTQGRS
Coagulation factor X, sequence (P00743 234-492 limits assumed): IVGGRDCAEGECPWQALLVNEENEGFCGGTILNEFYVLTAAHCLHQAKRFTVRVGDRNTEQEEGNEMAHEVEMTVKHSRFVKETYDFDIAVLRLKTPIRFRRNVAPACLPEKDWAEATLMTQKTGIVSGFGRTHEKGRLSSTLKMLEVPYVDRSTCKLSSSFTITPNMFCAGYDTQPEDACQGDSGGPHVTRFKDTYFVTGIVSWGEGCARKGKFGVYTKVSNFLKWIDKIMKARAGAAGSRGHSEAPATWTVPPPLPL

Row | SMILES | Ki [1] [µM] | Ki (Coagulation factor X) [µM] | Ki (Prothrombin) [µM] | Ki [2] [µM] | Ki (Serine protease 1) [µM]
1 | N=C(N)c1cccc(CC(NS(=O)(=O)c2ccc3ccccc3c2)C(=O)N2CCCCC2)c1 (configuration not stated) | 38 | – | – | – | –
2 | N=C(N)c1cccc(CC(NS(=O)(=O)c2ccc3ccccc3c2)C(=O)N2CCN(c3ccccc3)CC2)c1 (configuration not stated) | 41 | – | – | – | –
3 | CC1CCN(C(=O)C(Cc2cccc(C(=N)N)c2)NS(=O)(=O)c2c(C(C)C)cc(C(C)C)cc2C(C)C)CC1 (configuration not stated) | 2 | 2 | 0.075 | – | –
4 | CC(C)c1cc(C(C)C)c(S(=O)(=O)NC(Cc2cccc(C(N)N)c2)C(=O)N2CCN(C(=O)OCc3ccccc3)CC2)c(C(C)C)c1 (configuration not stated) | 1.4 | 2.7 | 1.1 | 0.95 | 0.2
5 | CC1CCN(C(=O)C(Cc2cccc(C(=N)N)c2)NC(=O)OC(C)(C)C)CC1 (configuration not stated) | 56 | 64 | – | – | –
6 | COC(=O)C1CCCN(C(=O)C(Cc2cccc(C(=N)N)c2)NS(=O)(=O)c2ccc3ccccc3c2)C1 (configuration not stated) | 26 | 18 | 0.15 | – | –
7 | COC(=O)C(Cc1cccc(C(N)N)c1)NC(=O)CNS(=O)(=O)c1ccc(C)cc1 (configuration not stated) | 78 | – | 3.9 | 23 | 5.7
8 | CC1CCCN(C(=O)C(Cc2cccc(C(=N)N)c2)NS(=O)(=O)c2ccc3ccccc3c2)C1 (configuration not stated) | 35 | 32 | 0.13 | – | 0.53
9 | CC(C)c1cc(C(C)C)c(S(=O)(=O)NC(Cc2cccc(C(N)N)c2)C(=O)N2CCCC(C(=O)NCc3ccccc3)C2)c(C(C)C)c1 (configuration not stated) | 1.6 | 2.5 | 1.8 | 0.98 | 0.46
10 | N=C(N)c1cccc(CC(NS(=O)(=O)c2ccc3ccccc3c2)C(=O)N2CCNCC2)c1 (configuration not stated) | 48 | – | – | – | –
11 | CNC(=O)C(Cc1cccc(C(N)N)c1)NC(=O)CNS(=O)(=O)c1ccc2ccccc2c1 (configuration not stated) | > 1000 | 3 | 9.6 | 69 | 9.2
12 | NC(N)c1ccc(CC(NC(=O)CNS(=O)(=O)c2ccc3ccccc3c2)C(=O)N2CCCCC2)cc1 (configuration not stated) | > 1000 | – | 0.006 | 70 | –
13 | COC(=O)C1CCN(C(=O)C(Cc2cccc(C(=N)N)c2)NS(=O)(=O)c2ccc3ccccc3c2)CC1 (configuration not stated) | 9.3 | 43 | 0.017 | – | –
14 | Cc1ccc(S(=O)(=O)NC(Cc2cccc(C(N)N)c2)C(=O)N2CCCCC2)cc1 (configuration not stated) | 55 | 15 | 0.34 | 120 | –
15 | CC1CCN(C(=O)C(Cc2cccc(C(=N)N)c2)NS(=O)(=O)c2cccc3ccccc23)CC1 (configuration not stated) | 34 | 42 | – | – | –
16 | CCOC(=O)N1CCN(C(=O)C(Cc2cccc(C(N)N)c2)NS(=O)(=O)c2c(C(C)C)cc(C(C)C)cc2C(C)C)CC1 (configuration not stated) | 0.41 | 1.7 | 0.49 | 0.57 | 0.037
17 | CC1CCN(C(=O)C(Cc2cccc(C(=N)N)c2)NS(=O)(=O)c2ccc3c(c2)C(=O)c2ccccc2C3=O)CC1 (configuration not stated) | 40 | 2.3 | – | – | –
18 | CCOC(=O)C1CCN(C(=O)C(Cc2cccc(C(=N)N)c2)NS(=O)(=O)c2ccc3ccccc3c2)CC1 (configuration not stated) | 4.5 | 18 | 0.22 | 24 | 0.0084
19 | NC(N)c1ccc(/C=C2\CCCC/C(=C\c3ccc(C(N)N)cc3)C2=O)cc1 | 3.4 | 0.013 | 0.32 | 0.035 | 0.09
20 | CC1CCN(C(=O)C(N)Cc2cccc(C(=N)N)c2)CC1 (configuration not stated) | 800 | 230 | – | – | –
21 | Cc1cc(C)c(S(=O)(=O)NC(Cc2cccc(C(=N)N)c2)C(=O)N2CCC(C)CC2)c(C)c1 (configuration not stated) | 16 | 95 | – | – | –
22 | Cc1ccc(S(=O)(=O)NC(Cc2cccc(C(=N)N)c2)C(=O)N2CCC(C)CC2)cc1 (configuration not stated) | 25 | 71 | – | – | –
23 | CC(C)OC(=O)C(Cc1cccc(C(N)N)c1)NC(=O)CNS(=O)(=O)c1ccc2ccccc2c1 (configuration not stated) | 49 | 0.24 | 1.2 | 33 | 3.7
24 | CC1CCN(C(=O)C(Cc2cccc(C(=N)N)c2)NS(=O)(=O)c2ccc3ccccc3c2)CC1 (configuration not stated) | 31 | – | – | – | –
25 | N=C(N)c1ccccc1 [BENZAMIDINE] | – | 160 | 890 | – | –
